Here are results for 31 compounds from PubChem BioAssay (NCI).

For the experiment, the system named is MDA-MB-468 breast. Put plainly: NCI anticancer screen, dose series, 48 h.

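Grown in 96-well plates, cells were treated for 48 hours with each compound at five concentrations. Insufficient inhibition: endpoint recorded as highest concentration tested. Here, GI50 denotes the concentration required for 50% inhibition of growth. TGI: total growth inhibition.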

`COc1cc(/C=C/C(=O)c2ccc(Nc3ncnc4ccccc34)cc2)cc(OC)c1`: the GI50 was 2200 nM and the TGI stood at 10700 nM.
With `O=C1/C(=C\C(Cl)=C/c2ccc([N+](=O)[O-])cc2)SC(=S)N1CCc1ccc(O)cc1`, the GI50 was 405 nM and the TGI was 1740 nM.
Take `COc1ccc(-c2cnc3ccnn3c2-c2cc(OC)c(OC)c(OC)c2)cc1`: the GI50 is 2640 nM and the TGI is greater than 100000 nM.
Take `CCOC(=O)/C(=C/c1ccc([N+](=O)[O-])cc1)C(=O)c1ccccc1`: the GI50 is 2310 nM and the TGI was 4600 nM.
With `CN(C)CCCN(c1nc(C(Cl)(Cl)Cl)ns1)c1nc(C(Cl)(Cl)Cl)ns1`, the GI50 is 1660 nM and the TGI worked out at 3110 nM.
Take `O=C1OCc2c1cc(F)cc2[N+](=O)[O-]`: the GI50 is greater than 100000 nM and the TGI is greater than 100000 nM.
With `CCCCCCCC/C=C/CCCCCCCC1=NC(C)(C)CN1C(C)C`, the GI50 was 1310 nM and the TGI was determined as 2700 nM.
In the case of `N#CC(=S)Nc1ccc(Cl)c(Cl)c1`, the GI50 was 6100 nM and the TGI is 52200 nM.
As to `COc1ccc(/C(C)=C(\c2ccc(Cl)cc2)c2ccc(OCCN3CCCC3)cc2)cc1F`, the GI50 is 3350 nM and the TGI amounted to 7180 nM.
On to `C=C1C(=O)O[C@H]2[C@H]1CC/C(Cn1cc(Cn3ccc4ccccc43)nn1)=C\CC[C@@]1(C)O[C@@H]21`, for which the GI50 was 717 nM and the TGI turned out to be 2480 nM.
On to `CN1CCC[C@@H]1CCO[C@](C)(c1ccccc1)c1ccc(Cl)cc1`, for which the GI50 is 1660 nM and the TGI is 3510 nM.
As to `c1cc(OCCN2CCCCCC2)ccc1CNc1ccc2nc(CCC3CCCCC3)[nH]c2c1`, the GI50 was 1550 nM and the TGI was found to be 4020 nM.
Take `COc1cc(/C=C2\CN(C)C/C(=C\c3cc(OC)c(OC)c(OC)c3)C2=O)cc(OC)c1OC`: the GI50 was 266 nM and the TGI was 849 nM.
In the case of `Cc1cccc2c(N=Nc3ccc(S(N)(=O)=O)cc3)c(O)[nH]c12`, the GI50 is greater than 25000 nM and the TGI is greater than 25000 nM.
Turning to `C=C1C(=O)O[C@H]2[C@H]1CC/C(COC(=O)CCCCCCCCC(=O)OC/C1=C/CC[C@@]3(C)O[C@H]3[C@H]3OC(=O)C(=C)[C@@H]3CC1)=C\CC[C@@]1(C)O[C@@H]21`, the GI50 is 2270 nM and the TGI is 5150 nM.
Turning to `O=C(O)C(CSC(c1ccccc1)(c1ccccc1)c1ccccc1)N=Cc1cccs1` (configuration not stated), the GI50 is 232 nM and the TGI was found to be 922 nM.
For `O=C(Nc1n[nH]c2nc(-c3ccco3)ccc12)C1CC1`, the GI50 was greater than 25000 nM and the TGI was greater than 25000 nM.
`CN[C@]12CC3(C=CC(=O)C=C3)O[C@@]1(Cc1ccc(OC)cc1)N(C)C(=O)N2`: the GI50 was 1250 nM and the TGI came out at 3500 nM.
`O=C1C(=O)c2ccccc2-c2ccccc21`: the GI50 was 1700 nM and the TGI stood at 3530 nM.
On to `COc1ccc(-c2nn(-c3cccc(NC(=O)Nc4ccc(Cl)c(C(F)(F)F)c4)c3)cc2-c2ccncc2)cc1Cl`, for which the GI50 is 1630 nM and the TGI turned out to be 6780 nM.
On the same counts, the results for `O=C(Nc1ccccc1)Nc1cccc(-n2cc(-c3ccncc3)c(-c3ccc(O)c(Cl)c3)n2)c1` are 3220 nM and 12200 nM.
On the same counts, the results for `CCCc1cc2cc(-n3nc(C)c4c3CC(C)(C)CC4=O)cc(NC3CCC(O)CC3)c2c(=O)[nH]1` (configuration not stated) are 47.5 nM and greater than 100000 nM.
On the same counts, the results for `COc1ccc(N(CC(=O)NCCC[Te]c2ccccc2)C(=O)CCSC2=C(C)C(=O)c3ccccc3C2=O)cc1` are 1670 nM and 3390 nM.
Regarding `O=C1c2cc3c(cc2-c2c1c1ccc(Cl)cc1c(=O)n2C[C@H](O)[C@@H](O)[C@H](O)CO)OCO3`, the GI50 was 18.9 nM and the TGI amounted to 45.9 nM.
Regarding `Cc1c2c(nn1C(=O)c1nn(-c3ccc(Cl)cc3)cc1O)-c1ccccc1CC2`, the GI50 was 250 nM and the TGI is greater than 58200 nM.
Regarding `CCN(CC)CCOc1ccc(/C(=C(\C)Cc2ccc(OC)cc2)c2ccc(OC(=O)NCc3ccccc3)cc2)cc1`, the GI50 was 1900 nM and the TGI came out at 3960 nM.
Regarding `CCN(CC)c1ccc2c(c1)Oc1nc(N)c(C#N)c(N)c1C2Sc1ccc(C)cc1` (configuration not stated), the GI50 is 1620 nM and the TGI was 3140 nM.
For `NC1=C(Cl)C(=O)c2ccc(S(N)(=O)=O)cc2C1=O`, in that order: 181 nM and 486 nM.
Consider `COc1ccc(/C=C2\CN(Cc3cn(CCCNc4ccnc5cc(Cl)ccc45)nn3)C/C(=C\c3ccc(OC)c(OC)c3)C2=O)cc1OC`, for which the GI50 was 772 nM and the TGI was determined as 2490 nM.
For `C/C(CC(=O)NNc1ccc([N+](=O)[O-])cc1)=N\Nc1ccc([N+](=O)[O-])cc1`, the GI50 was 28100 nM and the TGI is greater than 100000 nM.
Turning to `O=C(O)c1ccc2c(c1Nc1ccccc1)C(=O)c1ccccc1C2=O`, the GI50 was 31800 nM and the TGI was greater than 100000 nM.
